# Results: patent US10874650B1 (Ferrer Medical Innovations, LLC, priority 2020, dated 2020)
# Structures can show the parent of a compound that is named as a salt. Marks after values point to notes of the source that are not given here.
# Columns and labels:
# [1] = test system: divergent influenza A strains and influenza B strain; conditions: cited from earlier work
# [2] = test system: avian H7N9 influenza virus; conditions: mice; cited from earlier work
# [3] = test system: SARS-CoV-2, USA-WA1/2020 strain; format: cell-based; conditions: nasal spray 90%, ethanol 67.5%
SMILES,inhibitory activity against influenza [1],protection from fatal challenge [2],"Virus Titer ([3]; after 25 minutes incubation with virus at 22±2° C., average of three replicates ± standard deviation) [Log10 CCID50/mL]","Log Reduction Value ([3]; reduction of virus compared with virus control (water), 25 minutes incubation at 22±2° C.)"
"CN(C)CCC(c1ccc(Cl)cc1)c1ccccn1 (stereo not shown) [Chlorpheniramine, chlorpheniramine maleate]",potent inhibitory activity,protects mice from fatal challenge,–,–
CCO [Ethanol],–,–,1.0 ± 0.6,3.2***
